# Assays:
# Format in all cases: in vivo
# [1] = test system: strawberry plants ('Sabrina', 'Candonga', 'Fortuna'); assay: Strawberry fruit production without drought stress (trade-off); details: no drought stress; for Strawberry fruit production, % Control (2013) / Strawberry fruit production, % Control (2014): 1 g/l spray every 4 weeks for 3 months
# Protocol: (§1) In order to determine the plant yield productivity under normal conditions, ‘Sabrina’, ‘Candonga’ and ‘Fortuna’ strawberry varieties, leek, lettuce, “Iceberg” variety, broccoli “Parthenon” variety, celery or kohlrabi plants, were grown under standard production conditions and 120 plants of each variety per treatment (where the treatment was a control comprising standard watering or 1 g/L of TMAO di-hydrate spray every four weeks) were analyzed. Plants were located in four (4) different positions for each group of 30 plants from the same treatment. Fruits, leaves or roots were harvested from individual plants and total weight was determined for each plant.
# Fruit yield was determined in ‘Sabrina’, ‘Candonga’ and ‘Fortuna’ strawberry plants treated with 1 g/l of TMAO di-hydrate or water as described above in order to evaluate the trade-off costs of the treatment with no drought stress.
# pepper plants ('Murano') = assay: Pepper plant survival under extreme drought
# Protocol: For each drought or limited water experiment 480 seeds (of either pepper, barley, tomato, cucumber or corn) were sown, producing 384 plants in 512 cm^3 pots (4 plants per pot). Plants were grown under chamber conditions at 21° C. for 3 weeks. Then, the plants were moved to a greenhouse, where average temperature was 25° C. to 28° C. Spray and irrigation treatments as described herein were done when the plants had two extended leaves and the next pair of leaves were coming up.
# Treatments: Twelve pots (containing 48 plants) were irrigated with 40 ml of either: water, 0.1 g/L TMAO di-hydrate solution, 1.0 g/L TMAO di-hydrate solution, or 5.5 g/L TMAO di-hydrate solution. Another set of 12 pots containing 48 plants were sprayed with 40 ml of either water (3.3 ml in average per pot), a solution containing 0.1 g/L TMAO di-hydrate solution, 1.0 g/L TMAO di-hydrate, or 5 g/L, or 10 g/L TMAO di-hydrate. Further sets of 12 pots containing 48 plants were both sprayed with each initial solution TMAO di-hydrate solution and further irrigated with the same TMAO di-hydrate solutions used in the control water sprayed plants. All pots were also watered with 40 ml of water. The sprayed plants were watered with the same volume of water as the “irrigated plants). The pots were located on plastic glass to maintain constant moisture and to avoid liquid spillage during watering. Trays containing the pots were located on greenhouse tables. The distribution of the trays on the table and the position on the pots in the tray was changed every week to avoid position effects.
# After the treatments described above, the plants were not watered until the pots completely lost their moisture, taking about 4 to 8 days depending on the season, at which point the plants were extremely wilted for the extreme drought experiments. The plants were then watered once with solutions containing the different amounts of TMAO di-hydrate (0.1 g/L, 1.0 g/L, 5 g/L, or 10 g/L) or just water, after which the plants were left to lose their moisture completely again for three consecutive cycles of watering after wilting. For the “extreme drought” experiments plants were allowed to wilt severely before watering and then the plant survival rate was recorded and analyzed.
# TMAO di-hydrate applied exogenously, which increases the endogenous content of TMAO as if the plants were overexpressing an FMO protein at least 4 times increases plant survival in pepper plants under extreme drought conditions. ‘Murano’ pepper seeds were sown, grown and treated as described above.
# [2] = test system: pepper plants ('Palermo'); assay: Pepper fruit production, spray or constant irrigation
# Excerpt: TMAO di-hydrate applied exogenously which increases the endogenous content of TMAO as if the plants were overexpressing an FMO protein at least 4 times increases pepper production per plant and pepper fruit weight under limited water irrigation and under no stress. ‘Palermo’ pepper seeds were sown, grown and treated as described above.
# [3] = test system: barley plants ('Hispanic'); assay: Barley field seed production without irrigation; details: no external irrigation
# Protocol: In order to determine the drought or drought stress tolerance after seed treatments with TMAO di-hydrate and germination in the presence of TMAO di-hydrate, barley “Hispanic” seeds, corn “FAO700” seeds, and “Sambro” sunflower seeds were surface sterilized for 3 minutes in ethanol 70%, then rinsed twice and finally included in a pre-treatment solution of 1 g/L TMAO di-hydrate solution (or just water) under shaking for 3 hours at a dose of 1 litre per Kg of seeds. Then, the seeds were sown in randomized plots of 10 sqm in a surface of 2.000 sqm. Chlorophyll content was measured 1 month before harvest. In corn irrigation was applied in half of the plots while the other half only received an initial establishment watering. The barley plots received 200 l of rain per m^2 through the growing season. Some of the plots received a second spray treatment with 1 g/liter of TMAO. […] At least 3 independent plants were treated per experiment.
# TMAO di-hydrate applied exogenously which increases the endogenous content of TMAO as if the plants were overexpressing an FMO protein at least 4 times increases seed production in barley grown in the field without irrigation. ‘Hispanic” barley seeds were sown, grown and treated as described. Both, seed treatments (each Kg of seed was soaked in 1 liter of a 1 g/1 L TMAO di-hydrate solution, although smaller volumes of this solution are also effective) and a combination of seed and spray treatments with 1 g/L TMAO di-hydrate increased plant grain production. The field experienced 200 l/m^2 of rain water in total through the season.
# [4] = test system: broccoli plants (Parthenon); assay: Yield production without drought stress, broccoli; details: 1 g/l spray every 4 weeks for 3 months, no drought stress
# Protocol: as §1
# Root or leaves yield was determined in the plants treated with 1 g/l of TMAO di-hydrate or water as described above in order to evaluate the trade-off costs of the treatment with no drought stress.
# [5] = 30% water, 1 g/L in every irrigation
# [6] = 1 g TMAO/1 Kg seed + 1 g/L spray
structure (smiles),measurement,setting,value
"C[N+](C)(C)[O-].O.O [TMAO di-hydrate, trimethylamine N-oxide di-hydrate]",difference in fruit production versus water-treated plants,[1]; 1 g/l,no significant difference
same,"Strawberry fruit production, % Control (2013)",[1]; Candonga,102%
same,"Strawberry fruit production, % Control (2014)",[1]; Candonga,106%
same,"Strawberry fruit production, % Control (2013)",[1]; Fortuna,101%
same,"Strawberry fruit production, % Control (2014)",[1]; Fortuna,105%
same,"Strawberry fruit production, % Control (2013)",[1]; Sabrina,106%
same,"Strawberry fruit production, % Control (2014)",[1]; Sabrina,115%
same,"Strawberry fruit production, % Control (2013)",[1]; Total of varieties,105%
same,"Strawberry fruit production, % Control (2014)",[1]; Total of varieties,111%
same,SURVIVAL RATE (%),"pepper plants ('Murano'); irrigation 0.1 g/L, initial spray 0.1 g/L",33.3 ± 8.3%
same,SURVIVAL RATE (%),"pepper plants ('Murano'); irrigation 0.1 g/L, initial spray 1 g/L",54.1 ± 8.3%
same,SURVIVAL RATE (%),"pepper plants ('Murano'); irrigation 0.1 g/L, initial spray 10 g/L",83.3 ± 8.3%
same,SURVIVAL RATE (%),"pepper plants ('Murano'); irrigation 0.1 g/L, initial spray water",29.1 ± 8.3%
same,SURVIVAL RATE (%),"pepper plants ('Murano'); irrigation 1 g/L, initial spray 0.1 g/L",33.3 ± 7.7%
same,SURVIVAL RATE (%),"pepper plants ('Murano'); irrigation 1 g/L, initial spray 1 g/L",33.3 ± 7.7%
same,SURVIVAL RATE (%),"pepper plants ('Murano'); irrigation 1 g/L, initial spray 10 g/L",37.5 ± 7.7%
same,SURVIVAL RATE (%),"pepper plants ('Murano'); irrigation 1 g/L, initial spray water",0.0 ± 7.7%
same,SURVIVAL RATE (%),"pepper plants ('Murano'); irrigation 5 g/L, initial spray 0.1 g/L",100 ± 3.8%
same,SURVIVAL RATE (%),"pepper plants ('Murano'); irrigation 5 g/L, initial spray 1 g/L",100 ± 3.8%
same,SURVIVAL RATE (%),"pepper plants ('Murano'); irrigation 5 g/L, initial spray 10 g/L",87.5 ± 3.8%
same,SURVIVAL RATE (%),"pepper plants ('Murano'); irrigation 5 g/L, initial spray water",95.8 ± 3.8%
same,SURVIVAL RATE (%),"pepper plants ('Murano'); irrigation all regimes, initial spray 0.1 g/L",51.0 ± 3.6%
same,SURVIVAL RATE (%),"pepper plants ('Murano'); irrigation all regimes, initial spray 1 g/L",62.5 ± 3.6%
same,SURVIVAL RATE (%),"pepper plants ('Murano'); irrigation all regimes, initial spray 10 g/L",71.8 ± 3.6%
same,SURVIVAL RATE (%),"pepper plants ('Murano'); irrigation water, initial spray 0.1 g/L",37.5 ± 8.1%
same,SURVIVAL RATE (%),"pepper plants ('Murano'); irrigation water, initial spray 1 g/L",62.5 ± 8.1%
same,SURVIVAL RATE (%),"pepper plants ('Murano'); irrigation water, initial spray 10 g/L",79.1 ± 8.1%
same,increase in average fruit weight production per pepper plant versus 100% irrigation untreated,[2]; [5],13.3%
same,increase in average weight per pepper fruit versus 100% irrigation untreated,[2]; [5],11.9%
same,AVERAGE FRUIT WEIGHT (GRAMS) PER PEPPER PLANT,"[2]; 30% water, 1 g/L irrigation",545.0 ± 36.4 GRAMS
same,AVERAGE FRUIT WEIGHT (GRAMS) PER PEPPER PLANT,"[2]; 30% water, 1 g/L spray",504.8 ± 46.4 GRAMS
same,AVERAGE WEIGHT (GRAMS) PER PEPPER FRUIT,"[2]; 30% water, 1 g/L spray",33.5 ± 0.9 GRAMS
same,increase in average fruit weight production per pepper plant versus 100% irrigation untreated,"[2]; 30% water, 1 g/L spray",4.9%
same,increase in average fruit weight production per pepper plant in the absence of stress,"[2]; 100% water, 1 g/L in every irrigation",17.9%
same,AVERAGE FRUIT WEIGHT (GRAMS) PER PEPPER PLANT,"[2]; 100% water, 1 g/L irrigation",567.4 ± 19.6 GRAMS
same,AVERAGE WEIGHT (GRAMS) PER PEPPER FRUIT,"[2]; 100% water, 1 g/L irrigation",35.7 ± 1.3 GRAMS
same,% Control (seed production),[3]; 1 g TMAO/1 Kg seed,18%
same,Average number of Grams per square meter (seed production),[3]; 1 g TMAO/1 Kg seed,225.98 ± 11.89 Grams per square meter
same,% Control (seed production),[3]; [6],35%
same,Average number of Grams per square meter (seed production),[3]; [6],256.36 ± 12.78 Grams per square meter
same,"Yield production, % Control",[4],120%

# Reference: patent US20160237450A1, “METHOD FOR ENHANCING DROUGHT TOLERANCE IN PLANTS” (Plant Response Biotech S.L., priority 2015, published 2016)
